# Source: patent US20240238249A1, “Lipidic Nano-Pharmaceuticals” (Huxley Health Inc., priority 2022, published 2024)
# What was measured:
# [1] = 14C mescaline injected into developing rats; especially in adult animals; cited from earlier work
# [2] = 14C labelled psilocybin, animals; cited from earlier work
structure (smiles),measurement,setting,value
"COc1cc(CCN)cc(OC)c1OC [mescaline, 3,4,5-trimethoxyphenethylamine]",permeability of the BBB to mescaline,[1],nearly impermeable
CN(C)CCc1c[nH]c2cccc(OP(=O)(O)O)c12 [psilocybin],absorption following oral administration,[2],< 50%
CCCCCCCC(=O)Oc1ccc2[nH]cc(CCN(C)C)c2c1,melting point,,48.3 to 50.2 °C
